{
  "source": "patent US8961930B2",
  "about": "“Isatin derivatives for use as in vivo imaging agents” (Imperial Innovations Limited, priority 2008, dated 2015)",
  "key": {"[1]": {"assay": "In vivo biodistribution studies (Example 5)", "parameters": "species or system C3H/hej mice", "settings": "i.v., 2-60 min", "description": "The stability of novel compound [^18F]11 and known compound [^125I]14 in plasma and liver was measured over time following administration in mice. [^18F]11 was injected intravenously into tumor-bearing mice and its tissue distribution was measured in selected tissues at 2, 15 and 60 min after injection. [^125I]14 was injected intravenously into non-tumour bearing mice and its tissue distribution was measured at selected time points from 2 to 60 minutes after injection. Furthermore, the in vivo metabolic stability of the radiotracer was determined from plasma and liver samples and, for [^18F]11, in urine samples.\nThe radiation-induced murine fibrosarcoma (RIF-1) tumour cells^20 were maintained in RPMI 1640 medium (Invitrogen Ltd, Paisley, UK) supplemented with 10% fetal calf serum (BioWhittaker Europe Ltd, Verviers, Belgium), 2 mM L-glutamine, 100 U/mL penicillin, 100 μg/mL streptomycin and 0.25 μg/mL fungizone (Gibco, UK) at 37° C. in a humidified incubator with 5% CO2. All animal work was done by licensed investigators in accordance with the United Kingdom's “Guidance on the Operation of Animals (Scientific Procedures) Act 1986” (HMSO, London, United Kingdom, 1990) and in full compliance with government regulations and guidelines on the welfare of animals in experimental neoplasia^21. Tumors were established in mice by subcutaneous injection of 5×10^5 cells on the back of male C3H/hej mice (Harlan, Bicester, Oxfordshire, UK). Tumour growth was monitored every two days using electronic callipers, and tumor volume estimated using the equation (π/6)×L×W×D (L=length, W=width and D=depth). Animals were selected for biodistribution studies of [^18F]11 when the tumors reached ˜100-150 mm^3; biodistribution of [^125I]14 was done in non-tumor-bearing mice.\nMice were injected intravenously via the lateral vein with 0.08-0.13 mL of radioactivity (˜0.37 MBq of [^125I]14 or 3.7 MBq of [^18F]11) dissolved in phosphate buffered saline. At selected times after injection (2-60 min) mice were sacrificed by exsanguination via cardiac puncture under general anesthesia (isofluorane inhalation). Aliquots of heparinised blood were rapidly centrifuged (2000 g for 5 minutes) to obtain plasma. The radioactivity contained in tissues was determined by gamma-counting on a Cobra II Auto-Gamma counter (Packard Instruments, Meriden, Conn., USA) and expressed as a percentage of injected dose per gram of tissue (% ID/g). A minimum of three mice was used for each time point. All animals were treatment-naïve."}, "[2]": {"system": "PEO1 xenograft", "assay": "In vivo [^18F]11 biodistribution and PET imaging, PEO1 xenograft", "parameters": "species or system mice", "settings": "for 60 min biodistribution, Bone / 60 min biodistribution, Kidney / 60 min biodistribution, L. Intestine / 60 min biodistribution, Liver / 60 min biodistribution, Lung / 60 min biodistribution, Muscle / 60 min biodistribution, S. Intestine / 60 min biodistribution, Spleen / 60 min biodistribution, Tumour: PEO1", "description": "In vivo tumour models were established by subcutaneous injection of PEO1/4 (10×10^6 cells, with v/v matrigel, BD Biosciences, Oxford, UK), RIF-1 (5×10^5 cells) and LNM35 (1×10^6 cells) on the back of 6-8 weeks old female nu/nu-BALB/c or male C3H/hej mice (Harlan, Bicester, Oxfordshire, UK). Tumour growth was monitored every two days using electronic callipers, and tumour volume estimated using (π/6)×L×W×D (L=length, W=width and D=depth). All animal work was done by licensed investigators in accordance with the United Kingdom's “Guidance on the Operation of Animals (Scientific Procedures) Act 1986” (HMSO, London, United Kingdom, 1990) and in full compliance with government regulations and guidelines on the welfare of animals in experimental neoplasia.\nFor biodistribution studies, tumour-bearing mice were treated with 10 mg/kg cisplatin or vehicle for 24 h, anesthetized with isofluorane/O2/N2O and injected i.v. in the lateral tail vein with ˜100 μCi [^18F]11 for the indicated time. The different tissues were removed, weighted and placed in counting tubes for immediate Fluorine-18 radioactivity counting.\nTumour-bearing mice treated with Cisplatin (10 mg/kg for 24 h) or vehicle were scanned on a dedicated small animal PET scanner (quad-HIDAC; Oxford Positron Systems, Weston-on-the-Green, United Kingdom). Anesthetized animals were placed within a thermostatically controlled bed and positioned prone within the scanner. The bed was calibrated to provide a mouse rectal temperature of ˜37° C. A bolus injection of [^18F]11 (˜100 μCi) was given intravenously (i.v.) via the tail vein cannula and scanning commenced. Dynamic emission scans were acquired in list-mode format over 60 minutes. The acquired data were then sorted into 0.5-mm sinogram bins and 19 time frames (0.5×0.5×0.5 mm voxels; 4×15, 4×60, and 11×300 seconds) for image reconstruction, which was done by filtered back projection using a two-dimensional Hamming filter (cutoff 0.6). The image data-sets obtained were transferred to a SUN workstation (Ultra 10; SUN Microsystems, Santa Clara, Calif.) and visualized using the Analyze software (version 6.0; Biomedical Imaging Resource, Mayo Clinic, Rochester, Minn.). Cumulative images of the dynamic data composed of 0 to 1 minute after injection and 30 to 60 minutes after injection were used for visualization of radiotracer uptake and to define the regions of interest (ROI). The count densities were averaged for each ROI at each of the 19 time points to obtain a time versus radioactivity curve (TAC) for the ROIs. Tumour TAC was normalized to that of heart at each of the time points to obtain the normalized uptake value (NUV). The [^18F]9 data from […] were used as internal input function for normalizing tumour data. […] FRT is a useful variable in that it indicates the proportion of radiotracer delivered to the tumour that is retained. It therefore normalizes tumor [^18F]9 uptake to delivery."}},
  "data": [
    {"smiles": "O=C1C(=O)N(Cc2cn(CC[18F])nn2)c2ccc(S(=O)(=O)N3CCC[C@H]3COc3ccc(F)cc3F)cc21", "note": "[[^18F]11, (S)-1-((1-(2-Fluoroethyl)-1H-[1,2,3]-triazol-4-yl)methyl)-5-(2(2,4-difluorophenoxymethyl)-pyrrolidine-1-sulfonyl)isatin]", "values": [
      {"measurement": "Bone uptake", "setting": "[1]; RIF-1 tumor-bearing mice", "value": "low"},
      {"measurement": "uptake in untreated tumors, heart and brain", "setting": "[1]; RIF-1 tumor-bearing mice", "value": "low"},
      {"measurement": "tissue distribution and elimination", "setting": "[1]; mice", "value": "distributed rapidly to tissues and was also rapidly eliminated"},
      {"measurement": "60 min biodistribution, Bone", "setting": "[2]; CDDP treated", "value": "1.51 ± 1.02"},
      {"measurement": "60 min biodistribution, Bone", "setting": "[2]; Control", "value": "0.64 ± 0.09"},
      {"measurement": "PET image: uptake in the tumour", "setting": "[2]; CDDP-treated mouse, PEO1 xenograft, 30-60 min", "value": "significant uptake"},
      {"measurement": "60 min biodistribution, Kidney", "setting": "[2]; CDDP treated", "value": "8.53 ± 3.64"},
      {"measurement": "60 min biodistribution, Kidney", "setting": "[2]; Control", "value": "6.59 ± 1.94"},
      {"measurement": "60 min biodistribution, L. Intestine", "setting": "[2]; CDDP treated", "value": "3.24 ± 1.81"},
      {"measurement": "60 min biodistribution, L. Intestine", "setting": "[2]; Control", "value": "1.81 ± 0.37"},
      {"measurement": "60 min biodistribution, Liver", "setting": "[2]; CDDP treated", "value": "8.20 ± 2.09"},
      {"measurement": "60 min biodistribution, Liver", "setting": "[2]; Control", "value": "9.98 ± 2.51"},
      {"measurement": "60 min biodistribution, Lung", "setting": "[2]; CDDP treated", "value": "4.90 ± 1.05"},
      {"measurement": "60 min biodistribution, Lung", "setting": "[2]; Control", "value": "4.25 ± 0.57"},
      {"measurement": "60 min biodistribution, Muscle", "setting": "[2]; CDDP treated", "value": "1.34 ± 0.28"},
      {"measurement": "60 min biodistribution, Muscle", "setting": "[2]; Control", "value": "0.98 ± 0.14"},
      {"measurement": "uptake in the tumour of CDDP treated vs control mice", "setting": "[2]; PEO1 xenografts, 60 min", "value": "significant increased uptake"},
      {"measurement": "60 min biodistribution, S. Intestine", "setting": "[2]; CDDP treated", "value": "9.09 ± 5.82"},
      {"measurement": "60 min biodistribution, S. Intestine", "setting": "[2]; Control", "value": "4.27 ± 0.78"},
      {"measurement": "60 min biodistribution, Spleen", "setting": "[2]; CDDP treated", "value": "1.65 ± 0.22"},
      {"measurement": "60 min biodistribution, Spleen", "setting": "[2]; Control", "value": "1.19 ± 0.26"},
      {"measurement": "60 min biodistribution, Tumour", "setting": "[2]; CDDP treated", "value": "2.96 ± 1.25"},
      {"measurement": "60 min biodistribution, Tumour", "setting": "[2]; Control", "value": "1.37 ± 0.25"}
    ]}
  ]
}
